# Like-named read-outs stand apart in the source and are kept apart here. Marks after values point to notes of the source that are not given here. No end group written: not given here.
# Columns and labels:
# P. acnes DSM1897 = type: cell-based, Propionibacterium acnes
# Procedure: Broth Dilution Antibacterial Susceptibility Testing
# The sensitivity of relevant bacterial strains to peptides was determined using Clinical Laboratory Standard Institute (CLSI; formerly NCCLS) Approved Standards. Bacterial susceptibility was tested using “Methods for Dilution Antimicrobial Susceptibility Tests for Bacteria That Grow […]; Approved Standard—Seventh Edition M7-A7”
# M. furfur DSM6170 = type: cell-based, Malassezia furfur
# Procedure: Broth Dilution Antifungal Susceptibility Testing
# The sensitivity of relevant fungal strains to peptides was determined using Clinical Laboratory Standard Institute (CLSI; formerly NCCLS) Approved Standards. Yeast susceptibility was tested using “Reference Method for Broth Dilution Antifungal Susceptibility Testing of Yeasts; Approved Standard—Second Edition M27-A”.
# [1] = Table 3, starred values (*value in mg/ml)
# [2] = Table 1, starred values (*value in mM)
Molecule,Antimicrobial Activity (MIC) P. acnes DSM1897 (P. acnes DSM1897; DSM1897),also measured
"(I-K)n, n = 7-27, HBr salt [NP106]",–,"Antimicrobial Activity (MIC) P. acnes DSM1897 (P. acnes DSM1897; Table 1, unstarred values): 0.125 mg/mL; Antimicrobial Activity (MIC) M. furfur DSM6170 (M. furfur DSM6170; Table 1, unstarred values): 0.5 mg/mL"
"RRVVRR [NP305, RRVVRR]",>2 mM,–
KKKKKKKKK [NP345],2.5* mM,–
"RRVRVR [NP304, RRVRVR]",>2 mM,–
"N=C(N)NCCC[C@@H](N)C(=O)N[C@H](CCCNC(=N)N)C(=O)N[C@H](CCCNC(=N)N)C(=O)N[C@H](CCCNC(=N)N)C(=O)N[C@H](CCCNC(=N)N)C(=O)N[C@H](CCCNC(=N)N)C(=O)N[C@H](CCCNC(=N)N)C(=O)N[C@H](CCCNC(=N)N)C(=O)N[C@H](CCCNC(=N)N)C(=O)N[C@H](CCCNC(=N)N)C(=O)N[C@H](CCCNC(=N)N)C(=O)N[C@H](CCCNC(=N)N)C(=O)N[C@H](CCCNC(=N)N)C(=O)O [NP339, dRdRdRdRdRdRdRdRdRdRdRdRdR]",0.02 mM,Antimicrobial Activity (MIC) M. furfur DSM6170 (M. furfur DSM6170; DSM6170): 0.008 mM
"RRRVRRR [NP306, RRRVRRR]",2 mM,–
"(R)n, n = 86-402, HCl salt (15-70 kDa) [NP122]",–,MIC against Malassezia furfur DSM6170 (M. furfur DSM6170; [1]): 0.25* mg/ml
N=C(N)NCCC[C@H](NC(=O)[C@H](CCCNC(=N)N)NC(=O)[C@H](CCCNC(=N)N)NC(=O)[C@H](CCCNC(=N)N)NC(=O)[C@H](CCCNC(=N)N)NC(=O)[C@H](CCCNC(=N)N)NC(=O)[C@H](CCCNC(=N)N)NC(=O)[C@H](CCCNC(=N)N)NC(=O)[C@H](CCCNC(=N)N)NC(=O)[C@H](CCCNC(=N)N)NC(=O)[C@H](CCCNC(=N)N)NC(=O)[C@H](CCCNC(=N)N)NC(=O)[C@@H](N)CCCNC(=N)N)C(=O)O [NP337],0.0025 mM,Antimicrobial Activity (MIC) M. furfur DSM6170 (M. furfur DSM6170; DSM6170): 0.03125 mM
"RVRVR [NP301, RVRVR]",>2 mM,–
"RRVRR [NP303, RRVRR]",>2 mM,–
"(I-K)n, n = 100-200, HCl salt [NP101]",–,"Antimicrobial Activity (MIC) P. acnes DSM1897 (P. acnes DSM1897; Table 1, unstarred values): 0.1 mg/mL"
"RRVVR [NP302, RRVVR]",>2 mM,–
KKKKKKKKKKKKKKK [NP348],–,Antimicrobial Activity (MIC) P. acnes DSM1897 (P. acnes DSM1897; [2]): 0.0625* mM; Antimicrobial Activity (MIC) M. furfur DSM6170 (M. furfur DSM6170; [2]): 0.25* mM
RRRVVRRR [NP308],>2 mM,–
"(H)n, n = 32-161, HCl salt (5-25 kDa) [NP131]",–,MIC against Malassezia furfur DSM6170 (M. furfur DSM6170; [1]): 0.0625* mg/ml
"(R)n, n = 28-86, HCl salt (5-15 kDa) [NP121]",–,MIC against Malassezia furfur DSM6170 (M. furfur DSM6170; [1]): 0.25* mg/ml
"(H)n, n = >32, HCl salt (>5 kDa) [NP132]",–,MIC against Malassezia furfur DSM6170 (M. furfur DSM6170; [1]): 0.0625* mg/ml
"CC(=O)N[C@H](CCCNC(=N)N)C(=O)N[C@H](CCCNC(=N)N)C(=O)N[C@H](CCCNC(=N)N)C(=O)N[C@H](CCCNC(=N)N)C(=O)N[C@H](CCCNC(=N)N)C(=O)N[C@H](CCCNC(=N)N)C(=O)N[C@H](CCCNC(=N)N)C(=O)N[C@H](CCCNC(=N)N)C(=O)N[C@H](CCCNC(=N)N)C(=O)N[C@H](CCCNC(=N)N)C(=O)N[C@H](CCCNC(=N)N)C(=O)N[C@H](CCCNC(=N)N)C(=O)N[C@H](CCCNC(=N)N)C(N)=O [NP340, Ac-dRdRdRdRdRdRdRdRdRdRdRdRdR-NH2]",0.02 mM,Antimicrobial Activity (MIC) M. furfur DSM6170 (M. furfur DSM6170; DSM6170): 0.008 mM
CC(=O)N[C@@H](CCCNC(=N)N)C(=O)N[C@@H](CCCNC(=N)N)C(=O)N[C@@H](CCCNC(=N)N)C(=O)N[C@@H](CCCNC(=N)N)C(=O)N[C@@H](CCCNC(=N)N)C(=O)N[C@@H](CCCNC(=N)N)C(=O)N[C@@H](CCCNC(=N)N)C(=O)N[C@@H](CCCNC(=N)N)C(=O)N[C@@H](CCCNC(=N)N)C(=O)N[C@@H](CCCNC(=N)N)C(=O)N[C@@H](CCCNC(=N)N)C(=O)N[C@@H](CCCNC(=N)N)C(=O)N[C@@H](CCCNC(=N)N)C(N)=O [NP338],0.005 mM,"Antimicrobial Activity (MIC) M. furfur DSM6170 (M. furfur DSM6170; DSM6170): <0.0156 mM; MIC against Malassezia furfur DSM6170 (M. furfur DSM6170; Table 3, unstarred values): <0.0156 mM"
"RRVRVRR [NP307, RRVRVRR]",>2 mM,–

# The next lines start with results.
Antimicrobial Activity (MIC) P. acnes DSM1897 (P. acnes DSM1897; DSM1897),Molecule,also measured
>10* mM,"KKKKK [NP343, KKKKK]",–
>2 mM,KKKKKEGKKQEKMLD [NP333],–
0.25 mM,"RRWWRR [NP324, RRWWRR]",–
1 mM,RRVRRVRR [NP309],–
0.5 mM,RRRRVVRRRR [NP310],"Antimicrobial Activity (MIC) M. furfur DSM6170 (M. furfur DSM6170; DSM6170): 0.5 mM; MIC against Malassezia furfur DSM6170 (M. furfur DSM6170; Table 3, unstarred values): 0.5 mM"
>2 mM,PKTKAKAKAKKGKGKD [NP336],–
1 mM,"RWRWR [NP320, RWRWR]",–
0.25 mM,"RRWRWRR [NP326, RRWRWRR]",–
2 mM,"RRRWRRR [NP325, RRRWRRR]",–
<0.0156 mM,N=C(N)NCCC[C@H](NC(=O)[C@H](CCCNC(=N)N)NC(=O)[C@H](CCCNC(=N)N)NC(=O)[C@H](CCCNC(=N)N)NC(=O)[C@H](CCCNC(=N)N)NC(=O)[C@H](CCCNC(=N)N)NC(=O)[C@H](CCCNC(=N)N)NC(=O)[C@H](CCCNC(=N)N)NC(=O)[C@H](CCCNC(=N)N)NC(=O)[C@H](CCCNC(=N)N)NC(=O)[C@@H](N)CCCNC(=N)N)C(=O)O [NP317],"Antimicrobial Activity (MIC) M. furfur DSM6170 (M. furfur DSM6170; DSM6170): <0.0156 mM; MIC against Malassezia furfur DSM6170 (M. furfur DSM6170; Table 3, unstarred values): <0.0156 mM"
1 mM,"RRWWR [NP321, RRWWR]",–
>10* mM,"KKKKKKK [NP344, KKKKKKK]",Antimicrobial Activity (MIC) M. furfur DSM6170 (M. furfur DSM6170; DSM6170): 1* mM
>2 mM,KLTKPKPQAESKKKKK [NP332],–
0.5 mM,"RRWRWR [NP323, RRWRWR]",–
2 mM,RRVVRRVVRR [NP311],–
>2 mM,KKKDKVKK [NP334],–
>2 mM,GKKEKPEKKVKK [NP331],–
>2 mM,KVRQGTLKKAR [NP335],–
0.5 mM,RRWRRWRR [NP328],–
0.125 mM,RRRWWRRR [NP327],–
2 mM,"RRWRR [NP322, RRWRR]",–
